Measurements as given in patent US10035791B2, “Bicyclic compound and pharmaceutical composition thereof for treating stroke and use thereof” (China Medical University, priority 2016, dated 2018).

Key:
[1] = system: NSCs; experiment: Proliferation marker expressions (BrdU, ki-67) of the NSCs, immunofluorescence staining; assay type: cell-based, mice; details: 0.1, 1, 10 μM for 16 hours, especially 1 μM
Experimental: To prepare the NSCs, after removal of meninges, subventricular zones (SVZ) of lateral ventricles from adult mice brain (4 week-of-age) are aseptically isolated and dissociated as previously described (J Cell Sci 2006; 119, 4467-4474). All steps are operated under sterile conditions. Then, neurosphere culture are prepared in neurobasal (NB) medium (Gibco BRL) supplemented with 2% of B27 (Gibco BRL), 2 mM of L-glutamine (PAN Biotech), 100 U/ml of penicillin/[…] of streptomycin (Gibco BRL). For maintenance and expansion of the cultures, the NB/B27 is further supplemented with 2 μg/mL of heparin (Sigma), 20 ng/mL of FGF-2 (R&D Systems) and 20 ng/mL of EGF (R&D Systems). […] For clonal/low density cultures, primary neurospheres grown at high density are dissociated into a single cell suspension and reseeded into 96-well plates at 100 cells per ml of media and the number of newly formed neurospheres is counted after 7 days. In addition, the Bmi-1 expressions, SOX2 expressions, Nestin expressions, Musashi-1 expressions, BrdU expressions and ki-67 expressions of the newly formed neurospheres are determined by the immunofluorescence staining.
To measure the effect of the administration of the Compound 1 on proliferation marker expressions of the NSCs, the NSCs treated with the Compound 1 are detected by the immunofluorescence staining. […]

[2] = system: Bmi-1; experiment: Bmi-1 expressions in the brains of the ischemic rats, Western blot; assay type: in vivo, Sprague-Dawley (SD) rats
From the text: (§1) The ischemic rats are induced by an ischemia-reperfusion model to simulate transient focal cerebral ischemia in rats. Test animals are male Sprague-Dawley (SD) rats weighing 250-300 g. The rats are anesthetized with chloral hydrate (0.4 g/kg IP) and subjected to cerebral ischemia. The ischemia-reperfusion model is induced by ligations of bilateral common carotid arteries (CCAs) and a right middle cerebral artery (MCA). The bilateral CCAs are clamped with non-traumatic arterial clips, and the right MCA is ligated with an 10-0 nylon suture. After 90 minutes ischemia, the suture on the MCA and the arterial clips on CCAs are removed to allow reperfusion. Core body temperature is monitored with a thermistor probe (Hewlett-Packard Model 21090A probe, Hewlett-Packard Company, Andover, Mass.), and maintained at 37° C. with a heating pad during anesthesia. After recovery from anesthesia, rat body temperature is maintained at 37° C. with a heat lamp.
The ischemia-reperfusion model is established as described above. The ischemic rats are injected intraperitonealy with different dosages of the Compound 1 (0.1 mg/kg, 1 mg/kg and 10 mg/kg) at 4 hours after MCA ligation for three consecutive days. Sham rats undergo same protocol with the exception of the ligation of the bilateral CCAs and the right MCA. The rats only injected a vehicle are used as the control. The ischemic rats are decapitated at 4 hours, 16 hours, 24 hours, 36 hours and 72 hours after the Compound 1 injection. The Bmi-1 expressions and the HIF-1α expressions of the ischemic rats are detected by the Western blot analysis.
The ischemic rats are further treated with 100 mg/kg of the 2-ME2 or stereotaxic injected with the LV-Bmi-1-sh or the LV-control-sh to inhibit the HIF-1α expressions and the Bmi-1 expressions, and then the ischemic rats are treated with 1 mg/kg of the Compound 1. The effect of the administration of the Compound 1 on the Bmi-1 expressions in the brains of the ischemic rats which are reduced the Bmi-1 expressions or the HIF-1α expressions are detected by the Western blot analysis.

[3] = system: ischemic rats; experiment: Grip strength test; assay type: in vivo, Sprague-Dawley (SD) rats; details: 1 mg/kg, vs control group, FIG. 20
From the text: as §1, with “After recovery from anesthesia, rat body temperature is maintained at 37° C. with a heat lamp.” left out
The grip strength is analyzed using Grip Strength Meter (TSE-Systems). In brief, the grip strength of each forelimb of the ischemic rat is measured separately from the mean of 20 pulls, and the ratio of ipsilateral grip strength to contralateral grip strength is calculated. In addition, the ratio of grip strength post-cell-treatment and pre-cell-treatment is also calculated, and the changes are presented as a percentage of the pre-cell-treatment value.

[4] = system: HIF-1α; experiment: HIF-1α expressions in the PCCs with hypoxic treatment, Western blot; assay type: cell-based, C57BL/6 mice; details: 1 μM 2-ME2 for 16 hours, FIG. 6C
Experimental: Test cells are primary cortical cultures (PCCs) in this example. The PCCs are prepared from cerebral cortexes of gestation day 17 embryos from C57BL/6 mice as described previously (Cell Death Differ 2008; 15: 143-151). The PCCs are maintained under serum-free conditions in neurobasal medium (Invitrogen), supplemented with B-27 supplement (2%; invitrogen), glutamine (0.5 mM; Sigma Aldrich), glutamate ([…]; Sigma Aldrich), penicillin (100 U/ml) and streptomycin ([…]; Invitrogen). At 4 days in vitro, half of the medium is removed and replaced with fresh medium without glutamate. The cultures are maintained in a humidified incubator at 37° C. with 5% CO2. At 7 days in vitro, the PCCs are used for experimentation.
One group of the PCCs is transduced with LV-HIF-1α-sh (sc-35562-V, Santa Cruz Biotechnology) and LV-control-sh (sc-108080, Santa Cruz Biotechnology) by a lenti-viral infection to reduce the HIF-1α expressions. Another group of the PCCs is treated with 1 μM of 2-ME2 for 16 hours to reduce the HIF-1α expressions in the PCCs. In FIG. 6C, the HIF-1α expressions in the PCCs are decreased both in the LV-HIF-1α-sh transduced group and the 2-ME2 treated group.

SMILES | proportion of the BrdU+ cells in the neurosphere culture ([1]; FIG. 12B) | proportion of the ki-67+ cells in the neurosphere culture ([1]; FIG. 12C) | treatment time with the highest Bmi-1 expression ([2]; 1 mg/kg, 4 to 72 hours after injection, FIG. 13A) [h] | Bmi-1 expressions in the brains of the ischemic rats ([2]; 0.1, 1, 10 mg/kg intraperitoneal, vs control and sham rats, FIGS. 13A to 13C) | dosage with the highest Bmi-1 expression ([2]; 0.1, 1, 10 mg/kg tested, 36 hours, FIG. 13B) [mg/kg] | grip strength ratio [3] | increased Bmi-1 expressions by the Compound 1 treatment in brains of ischemic rats ([2]; 100 mg/kg 2-ME2 plus 1 mg/kg Compound 1, FIG. 13C) | HIF-1α expressions in the PCCs [4]
COC(=O)C1=CO[C@@H](O)[C@@H]2C(COC(=O)[C@@H](N)Cc3ccccc3)=CC[C@H]12 [Compound 1] | increases the proportion | increases the proportion | 36 | significantly increases | 1 | much better | – | –
COc1cc2c(cc1O)CC[C@@H]1[C@@H]2CC[C@]2(C)[C@@H](O)CC[C@@H]12 [Compound 2-ME2, 2-Methoxyestradiol, reference compound] | – | – | – | – | – | – | inhibited | decreased
